These are literature values, as cited in patent publication US20230364135A1, “GUT-SELECTIVE SEQUESTERING AGENTS FOR THE TREATMENT AND PREVENTION OF AUTISM AND RELATED DISORDERS” (Axial Biotherapeutics, Inc., priority 2017, published 2023).

This series concerns naïve, wild-type mice. The settings on record: single bolus injection intraperitoneally.

Take `CCc1ccc(OS(=O)(=O)[O-])cc1.[K+]` [4-EPS, 4-ethylphenylsulfate]: the “core symptoms of autism spectrum disorder” value is “did not engender any core symptoms of autism spectrum disorder” and the symptoms of anxiety result is on record as “engendered symptoms of anxiety”.
